{"source": "patent US20110173718A1", "about": "“HERBICIDE TOLERANT PLANTS” (SYNGENTA CROP PROTECTION, INC., priority 2008, published 2011)", "tested_on": "weeds", "assay": "Glasshouse weed control by HST/HPPD (mesotrione) mixtures, pre-emergence", "format": "in vivo", "conditions": "for colby: Colby synergy score; for % Damage at 14 DAA, 1 g ai ha^−1 mesotrione / % Damage at 14 DAA, no-mesotrione: N = 3", "protocol": "Weed seeds are planted out in trays containing suitable soil (for example 50% peat, 50% John Innes soil no 3) and grown in the glass house conditions under 24-27° C. day; 18-21° C. night and approximately a 14 h (or longer in UK summer) photoperiod. Humidity is ˜65% and light levels up to 2000 μmol/m^2 at bench level. Trays are sprayed with test chemicals dissolved in water with 0.2-0.25% X-77 surfactant and sprayed from a boom on a suitable track sprayer moving at about 2 mph in a suitable track sprayer (for example a DeVries spray chamber with the nozzle about 2 inches from the plant tops). Spray volume is suitably 500-1000 l/ha. Sprays are carried out both pre-emergence and over small plants at about 7-12 d post-emergence\nPlants are assessed 14 DAT and herbicidal damage is scored on a scale from 0 to 100%. The HST inhibitor compound 2.30 (designated compound A in table 16 and 17), haloxydine (compound 1.1) and compound 2.13 (designated compound AE in tables 16 and 17) are sprayed at rates between 0 and 500 g/ha.", "key": {"[1]": {"conditions": "ALOMY, 16 g/ha + mesotrione 1 g ai/ha"}, "[2]": {"conditions": "ALOMY, 31 g/ha + mesotrione 1 g ai/ha"}, "[3]": {"conditions": "ALOMY, 63 g/ha + mesotrione 1 g ai/ha"}, "[4]": {"conditions": "ALOMY, 125 g/ha + mesotrione 1 g ai/ha"}, "[5]": {"conditions": "ALOMY, 250 g/ha + mesotrione 1 g ai/ha"}, "[6]": {"conditions": "ALOMY, 500 g/ha + mesotrione 1 g ai/ha"}, "[7]": {"conditions": "AMARE, 16 g/ha + mesotrione 1 g ai/ha"}, "[8]": {"conditions": "AMARE, 31 g/ha + mesotrione 1 g ai/ha"}, "[9]": {"conditions": "AMARE, 63 g/ha + mesotrione 1 g ai/ha"}, "[10]": {"conditions": "AMARE, 125 g/ha + mesotrione 1 g ai/ha"}, "[11]": {"conditions": "AMARE, 250 g/ha + mesotrione 1 g ai/ha"}, "[12]": {"conditions": "AMARE, 500 g/ha + mesotrione 1 g ai/ha"}, "[13]": {"conditions": "ECHCG, 16 g/ha + mesotrione 1 g ai/ha"}, "[14]": {"conditions": "ECHCG, 31 g/ha + mesotrione 1 g ai/ha"}, "[15]": {"conditions": "ECHCG, 63 g/ha + mesotrione 1 g ai/ha"}, "[16]": {"conditions": "ECHCG, 125 g/ha + mesotrione 1 g ai/ha"}, "[17]": {"conditions": "ECHCG, 250 g/ha + mesotrione 1 g ai/ha"}, "[18]": {"conditions": "ECHCG, 500 g/ha + mesotrione 1 g ai/ha"}, "[19]": {"conditions": "IPOHE, 16 g/ha + mesotrione 1 g ai/ha"}, "[20]": {"conditions": "IPOHE, 31 g/ha + mesotrione 1 g ai/ha"}, "[21]": {"conditions": "IPOHE, 63 g/ha + mesotrione 1 g ai/ha"}, "[22]": {"conditions": "IPOHE, 125 g/ha + mesotrione 1 g ai/ha"}, "[23]": {"conditions": "IPOHE, 250 g/ha + mesotrione 1 g ai/ha"}, "[24]": {"conditions": "IPOHE, 500 g/ha + mesotrione 1 g ai/ha"}, "[25]": {"conditions": "SETFA, 16 g/ha + mesotrione 1 g ai/ha"}, "[26]": {"conditions": "SETFA, 31 g/ha + mesotrione 1 g ai/ha"}, "[27]": {"conditions": "SETFA, 63 g/ha + mesotrione 1 g ai/ha"}}, "data": [{"smiles": "CC(C)C(=O)Oc1c(-c2c(F)ccc(Br)c2Cl)c(=O)n(CC(F)F)c2nccnc12", "note": "[Compound 2.30]", "values": [{"measurement": "colby", "setting": "[1]", "result": 0, "unit": "%"}, {"measurement": "% Damage at 14 DAA, 1 g ai ha^−1 mesotrione", "setting": "[1]", "result": 0, "unit": "%"}, {"measurement": "% Damage at 14 DAA, no-mesotrione", "setting": "ALOMY, 16 g/ha", "result": 0, "unit": "%"}, {"measurement": "colby", "setting": "[2]", "result": 0, "unit": "%"}, {"measurement": "% Damage at 14 DAA, 1 g ai ha^−1 mesotrione", "setting": "[2]", "result": 0, "unit": "%"}, {"measurement": "% Damage at 14 DAA, no-mesotrione", "setting": "ALOMY, 31 g/ha", "result": 0, "unit": "%"}, {"measurement": "colby", "setting": "[3]", "result": 0, "unit": "%"}, {"measurement": "% Damage at 14 DAA, 1 g ai ha^−1 mesotrione", "setting": "[3]", "result": 0, "unit": "%"}, {"measurement": "% Damage at 14 DAA, no-mesotrione", "setting": "ALOMY, 63 g/ha", "result": 0, "unit": "%"}, {"measurement": "colby", "setting": "[4]", "result": 0, "unit": "%"}, {"measurement": "% Damage at 14 DAA, 1 g ai ha^−1 mesotrione", "setting": "[4]", "result": 0, "unit": "%"}, {"measurement": "% Damage at 14 DAA, no-mesotrione", "setting": "ALOMY, 125 g/ha", "result": 0, "unit": "%"}, {"measurement": "colby", "setting": "[5]", "result": "−2", "unit": "%"}, {"measurement": "% Damage at 14 DAA, 1 g ai ha^−1 mesotrione", "setting": "[5]", "result": 0, "unit": "%"}, {"measurement": "% Damage at 14 DAA, no-mesotrione", "setting": "ALOMY, 250 g/ha", "result": 2, "unit": "%"}, {"measurement": "colby", "setting": "[6]", "result": 10, "unit": "%"}, {"measurement": "% Damage at 14 DAA, 1 g ai ha^−1 mesotrione", "setting": "[6]", "result": 20, "unit": "%"}, {"measurement": "% Damage at 14 DAA, no-mesotrione", "setting": "ALOMY, 500 g/ha", "result": 10, "unit": "%"}, {"measurement": "colby", "setting": "[7]", "result": "−2", "unit": "%"}, {"measurement": "% Damage at 14 DAA, 1 g ai ha^−1 mesotrione", "setting": "[7]", "result": 0, "unit": "%"}, {"measurement": "% Damage at 14 DAA, no-mesotrione", "setting": "AMARE, 16 g/ha", "result": 0, "unit": "%"}, {"measurement": "colby", "setting": "[8]", "result": "−2", "unit": "%"}, {"measurement": "% Damage at 14 DAA, 1 g ai ha^−1 mesotrione", "setting": "[8]", "result": 0, "unit": "%"}, {"measurement": "% Damage at 14 DAA, no-mesotrione", "setting": "AMARE, 31 g/ha", "result": 0, "unit": "%"}, {"measurement": "colby", "setting": "[9]", "result": 8, "unit": "%"}, {"measurement": "% Damage at 14 DAA, 1 g ai ha^−1 mesotrione", "setting": "[9]", "result": 10, "unit": "%"}, {"measurement": "% Damage at 14 DAA, no-mesotrione", "setting": "AMARE, 63 g/ha", "result": 0, "unit": "%"}, {"measurement": "colby", "setting": "[10]", "result": 29, "unit": "%"}, {"measurement": "% Damage at 14 DAA, 1 g ai ha^−1 mesotrione", "setting": "[10]", "result": 40, "unit": "%"}, {"measurement": "% Damage at 14 DAA, no-mesotrione", "setting": "AMARE, 125 g/ha", "result": 10, "unit": "%"}, {"measurement": "colby", "setting": "[11]", "result": 9, "unit": "%"}, {"measurement": "% Damage at 14 DAA, 1 g ai ha^−1 mesotrione", "setting": "[11]", "result": 47, "unit": "%"}, {"measurement": "% Damage at 14 DAA, no-mesotrione", "setting": "AMARE, 250 g/ha", "result": 37, "unit": "%"}, {"measurement": "colby", "setting": "[12]", "result": 16, "unit": "%"}, {"measurement": "% Damage at 14 DAA, 1 g ai ha^−1 mesotrione", "setting": "[12]", "result": 90, "unit": "%"}, {"measurement": "% Damage at 14 DAA, no-mesotrione", "setting": "AMARE, 500 g/ha", "result": 73, "unit": "%"}, {"measurement": "colby", "setting": "[13]", "result": 0, "unit": "%"}, {"measurement": "% Damage at 14 DAA, 1 g ai ha^−1 mesotrione", "setting": "[13]", "result": 0, "unit": "%"}, {"measurement": "% Damage at 14 DAA, no-mesotrione", "setting": "ECHCG, 16 g/ha", "result": 0, "unit": "%"}, {"measurement": "colby", "setting": "[14]", "result": 0, "unit": "%"}, {"measurement": "% Damage at 14 DAA, 1 g ai ha^−1 mesotrione", "setting": "[14]", "result": 0, "unit": "%"}, {"measurement": "% Damage at 14 DAA, no-mesotrione", "setting": "ECHCG, 31 g/ha", "result": 0, "unit": "%"}, {"measurement": "colby", "setting": "[15]", "result": 0, "unit": "%"}, {"measurement": "% Damage at 14 DAA, 1 g ai ha^−1 mesotrione", "setting": "[15]", "result": 0, "unit": "%"}, {"measurement": "% Damage at 14 DAA, no-mesotrione", "setting": "ECHCG, 63 g/ha", "result": 0, "unit": "%"}, {"measurement": "colby", "setting": "[16]", "result": "−2", "unit": "%"}, {"measurement": "% Damage at 14 DAA, 1 g ai ha^−1 mesotrione", "setting": "[16]", "result": 0, "unit": "%"}, {"measurement": "% Damage at 14 DAA, no-mesotrione", "setting": "ECHCG, 125 g/ha", "result": 2, "unit": "%"}, {"measurement": "colby", "setting": "[17]", "result": 0, "unit": "%"}, {"measurement": "% Damage at 14 DAA, 1 g ai ha^−1 mesotrione", "setting": "[17]", "result": 5, "unit": "%"}, {"measurement": "% Damage at 14 DAA, no-mesotrione", "setting": "ECHCG, 250 g/ha", "result": 5, "unit": "%"}, {"measurement": "colby", "setting": "[18]", "result": 8, "unit": "%"}, {"measurement": "% Damage at 14 DAA, 1 g ai ha^−1 mesotrione", "setting": "[18]", "result": 27, "unit": "%"}, {"measurement": "% Damage at 14 DAA, no-mesotrione", "setting": "ECHCG, 500 g/ha", "result": 18, "unit": "%"}, {"measurement": "colby", "setting": "[19]", "result": 0, "unit": "%"}, {"measurement": "% Damage at 14 DAA, 1 g ai ha^−1 mesotrione", "setting": "[19]", "result": 0, "unit": "%"}, {"measurement": "% Damage at 14 DAA, no-mesotrione", "setting": "IPOHE, 16 g/ha", "result": 0, "unit": "%"}, {"measurement": "colby", "setting": "[20]", "result": 0, "unit": "%"}, {"measurement": "% Damage at 14 DAA, 1 g ai ha^−1 mesotrione", "setting": "[20]", "result": 0, "unit": "%"}, {"measurement": "% Damage at 14 DAA, no-mesotrione", "setting": "IPOHE, 31 g/ha", "result": 0, "unit": "%"}, {"measurement": "colby", "setting": "[21]", "result": 0, "unit": "%"}, {"measurement": "% Damage at 14 DAA, 1 g ai ha^−1 mesotrione", "setting": "[21]", "result": 0, "unit": "%"}, {"measurement": "% Damage at 14 DAA, no-mesotrione", "setting": "IPOHE, 63 g/ha", "result": 0, "unit": "%"}, {"measurement": "colby", "setting": "[22]", "result": 0, "unit": "%"}, {"measurement": "% Damage at 14 DAA, 1 g ai ha^−1 mesotrione", "setting": "[22]", "result": 0, "unit": "%"}, {"measurement": "% Damage at 14 DAA, no-mesotrione", "setting": "IPOHE, 125 g/ha", "result": 0, "unit": "%"}, {"measurement": "colby", "setting": "[23]", "result": "−2", "unit": "%"}, {"measurement": "% Damage at 14 DAA, 1 g ai ha^−1 mesotrione", "setting": "[23]", "result": 0, "unit": "%"}, {"measurement": "% Damage at 14 DAA, no-mesotrione", "setting": "IPOHE, 250 g/ha", "result": 2, "unit": "%"}, {"measurement": "colby", "setting": "[24]", "result": 13, "unit": "%"}, {"measurement": "% Damage at 14 DAA, 1 g ai ha^−1 mesotrione", "setting": "[24]", "result": 17, "unit": "%"}, {"measurement": "% Damage at 14 DAA, no-mesotrione", "setting": "IPOHE, 500 g/ha", "result": 3, "unit": "%"}, {"measurement": "colby", "setting": "[25]", "result": 0, "unit": "%"}, {"measurement": "% Damage at 14 DAA, 1 g ai ha^−1 mesotrione", "setting": "[25]", "result": 0, "unit": "%"}, {"measurement": "% Damage at 14 DAA, no-mesotrione", "setting": "SETFA, 16 g/ha", "result": 0, "unit": "%"}, {"measurement": "colby", "setting": "[26]", "result": 0, "unit": "%"}, {"measurement": "% Damage at 14 DAA, 1 g ai ha^−1 mesotrione", "setting": "[26]", "result": 0, "unit": "%"}, {"measurement": "% Damage at 14 DAA, no-mesotrione", "setting": "SETFA, 31 g/ha", "result": 0, "unit": "%"}, {"measurement": "colby", "setting": "[27]", "result": 0, "unit": "%"}, {"measurement": "% Damage at 14 DAA, 1 g ai ha^−1 mesotrione", "setting": "[27]", "result": 0, "unit": "%"}, {"measurement": "% Damage at 14 DAA, no-mesotrione", "setting": "SETFA, 63 g/ha", "result": 0, "unit": "%"}]}]}
